# Tests used:
# COX-2 = biological target: T1, COX-2 (Ovis aries, UniProt P79208); test: In vitro COX-2 inhibition, colorimetric enzyme immune assay; assay type: biochemical, ovine; conditions: for COX-2 SI (COX-1 IC50/COX-2 IC50): in vitro COX-2 selectivity index; for COX-2 inhibition, in words: compared with celecoxib
# T1 sequence (P79208 17-603): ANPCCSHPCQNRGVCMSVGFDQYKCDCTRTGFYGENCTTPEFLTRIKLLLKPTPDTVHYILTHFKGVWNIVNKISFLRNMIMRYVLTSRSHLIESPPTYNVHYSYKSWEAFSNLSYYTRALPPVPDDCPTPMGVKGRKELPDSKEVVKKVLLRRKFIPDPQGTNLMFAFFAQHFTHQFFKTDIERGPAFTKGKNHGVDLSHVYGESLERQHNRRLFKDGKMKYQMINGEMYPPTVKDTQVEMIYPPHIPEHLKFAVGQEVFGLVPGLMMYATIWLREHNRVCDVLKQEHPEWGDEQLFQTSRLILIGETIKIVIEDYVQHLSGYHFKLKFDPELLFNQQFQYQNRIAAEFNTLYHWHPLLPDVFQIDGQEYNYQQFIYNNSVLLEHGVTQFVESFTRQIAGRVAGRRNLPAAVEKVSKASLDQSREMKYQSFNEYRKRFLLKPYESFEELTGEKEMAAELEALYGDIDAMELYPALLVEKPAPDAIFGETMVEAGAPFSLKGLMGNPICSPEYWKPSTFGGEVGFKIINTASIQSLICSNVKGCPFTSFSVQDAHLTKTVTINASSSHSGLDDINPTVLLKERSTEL
# COX-1 = biological target: T2, COX-1 (Ovis aries, UniProt P05979); test: In vitro COX-1 inhibition, colorimetric enzyme immune assay; assay type: biochemical, ovine
# T2 sequence (P05979 25-600): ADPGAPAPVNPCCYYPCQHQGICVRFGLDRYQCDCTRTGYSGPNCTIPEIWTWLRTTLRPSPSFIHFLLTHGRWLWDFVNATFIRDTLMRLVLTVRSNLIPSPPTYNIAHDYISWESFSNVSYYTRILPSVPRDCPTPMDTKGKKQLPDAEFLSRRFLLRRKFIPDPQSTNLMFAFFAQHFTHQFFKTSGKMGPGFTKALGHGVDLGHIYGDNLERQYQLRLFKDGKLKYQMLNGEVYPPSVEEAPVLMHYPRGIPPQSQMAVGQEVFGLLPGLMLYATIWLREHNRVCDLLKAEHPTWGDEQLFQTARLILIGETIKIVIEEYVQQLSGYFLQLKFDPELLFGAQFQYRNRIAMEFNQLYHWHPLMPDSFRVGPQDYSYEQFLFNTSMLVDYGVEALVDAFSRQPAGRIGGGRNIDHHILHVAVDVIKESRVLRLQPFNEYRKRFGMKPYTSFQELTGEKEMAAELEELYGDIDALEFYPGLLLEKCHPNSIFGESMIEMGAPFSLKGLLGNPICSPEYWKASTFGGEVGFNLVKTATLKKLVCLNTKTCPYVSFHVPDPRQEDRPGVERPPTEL
SMILES,COX-2 SI (COX-1 IC50/COX-2 IC50) (COX-2),IC50 (COX-1) [µM],"COX-2 inhibition, in words (COX-2)"
"O=[N+]([O-])c1ccc(-c2ccccc2F)cc1 [Compound 3a, 2-Fluoro-4'-nitrobiphenyl]",84.16,–,–
"Fc1ccccc1-c1ccc(F)c(C(F)(F)F)c1 [Compound 3b, 2,4'-Difluoro-3'-(trifluoromethyl) biphenyl]",101.99,11.2,–
"Fc1ccc(-c2ccccc2F)cc1OC(F)(F)F [Compound 3c, 2,4'-Difluoro-3'-(trifluoromethoxy)biphenyl]",109.9,–,–
"O=[N+]([O-])c1cccc(-c2ccccc2F)c1F [Compound 3d, 2,2'-Difluoro-3-nitrobiphenyl]",68.06,–,–
"COc1ccccc1-c1ccc([N+](=O)[O-])cc1 [Compound 3f, 2-Methoxy-4'-nitrobiphenyl]",32.55,–,less potency
"COc1ccccc1-c1ccc(F)c(C(F)(F)F)c1 [Compound 3g, 4'-Fluoro-2-methoxy-3'-(trifluoromethyl)biphenyl]",76.84,–,–
"COc1ccccc1-c1ccc(F)c(OC(F)(F)F)c1 [Compound 3h, 4'-Fluoro-2-methoxy-3'-(trifluoromethoxy)biphenyl]",67.31,–,–
"COc1ccccc1-c1cccc([N+](=O)[O-])c1F [Compound 3i, 2-Fluoro-2'-methoxy-3-nitrobiphenyl]",54.94,–,less potency
"COc1ccc(F)c(-c2ccccc2OC)c1 [Compound 3j, 2-Fluoro-2',5-dimethoxybiphenyl]",–,–,less potency

# Source: PMC8723806 (Journal of the Iranian Chemical Society, 2022)
